Measurements reported in patent US5849736A, “Isoxazoline and isoxazole fibrinogen receptor antagonists” (The DuPont Merck Pharmaceutical Company, priority 1995, dated 1998).
Structures can show the parent of a compound that is named as a salt. Where two headings read alike, the source gives them in different places.

System: platelet aggregation in human platelet rich plasma (PRP)
Assay: Platelet Aggregation Assay (platelet rich plasma, with or without esterase pretreatment)
Format: cell-based
Experimental: Venous blood was obtained from the arm of a healthy human donor who was drug-free and aspirin-free for at least two weeks prior to blood collection. Blood was collected into 10 mL citrated Vacutainer tubes. The blood was centrifuged for 15 minutes at 150×g at room temperature, and platelet-rich plasma (PRP) was removed. The remaining blood was centrifuged for 15 minutes at 1500×g at room temperature, and platelet-poor plasma (PPP) was removed. Samples were assayed on a aggregometer (PAP-4 Platelet Aggregation Profiler), using PPP as the blank (100% transmittance). 200 μL of PRP was added to each micro test tube, and transmittance was set to 0%. 20 μL of various agonists (ADP, collagen, arachidonate, epinephrine, thrombin) were added to each tube, and the aggregation profiles were plotted (% transmittance versus time). The results are expressed as % inhibition of agonist-induced platelet aggregation. For the IC50 evaluation, the test compounds were added at various concentrations prior to the activation of the platelets.
Ester prodrugs were preincubated (10^-3 M F.C.) with 100 IU/mL Porcine liver esterase (Sigma Chemical Co., St. Louis, Mo., #E-3128) for 2 hours at 37° C. Aliquots are then diluted in 0.1M Tris, pH 7.4, to the desired concentrations. Aliquots of 20 μl of the esterase pretreated prodrugs are added to 200 μl of human platelet rich plasma. Samples were placed in platelet profiler (aggregometer) for 8 minutes at 37° C., followed by the addition of 100 μM Adenosine Diphosphate, (Sigma Chemical Co., St. Louis, Mo., #A-6521), to induce platelet aggregation. Platelet aggregation was allowed to proceed for 5 minutes. Percent inhibition is calculated using percent aggregation in the presence of the test compound divided by percent aggregation of control, times 100. This value is subtracted from 100, yielding percent inhibition. Calculation of IC50 is performed on a Texas Instruments TI59 with an IC50 program.
Table A below sets forth the antiplatelet activity of representative compounds of the present invention. The indicated compounds were tested for their ability to inhibit platelet aggregation (using platelet rich plasma (PRP)). The IC50 value (the concentration of antagonist which inhibits platelet aggregation by 50% relative to a control lacking the antagonist) is shown. In Table 5 the IC50 values are expressed as: +++=IC50 of <10 μM; ++=IC50 of 10-50 μM; +=IC50 of 50-100 μM (μM=micromolar).

[1] = Platelet, preincubated with 100 IU/mL porcine liver esterase 2 hours at 37° C., 100 μM ADP, read-out: Platelet Aggregation Assay IC50 (with esterase)
[2] = Platelet, without esterase, read-out: Platelet Aggregation Assay IC50 (without esterase)

Compound | IC50 [1] [µM] | further results
CCS(=O)(=O)NC(CNC(=O)CC1CC(c2ccc(C(=N)N)cc2)=NO1)C(=O)OC (centres unmarked) [Example 324] | < 10 | 
COC(=O)C(CNC(=O)CC1CC(c2ccc(C(=N)N)cc2)=NO1)NS(=O)(=O)c1ccccc1 (centres unmarked) [Example 326] | < 10 | 
COC(=O)[C@H](CNC(=O)CC1CC(c2ccc(C(=N)N)cc2)=NO1)NS(=O)(=O)c1ccc(C)cc1 (some centres unmarked) [Example 327] | < 10 | 
CCCC[C@H](CC(=O)OC)NC(=O)CC1CC(c2ccc(C(=N)N)cc2)=NO1 (stereo partly drawn) [Example 344, Methyl 3(R)-{5(R,S)-N-[3-(4-Amidinophenyl)isoxazolin-5-ylacetyl]amino}heptanoate] | < 10 | 
CCCCC(CC(=O)OCC)NC(=O)CC1CC(c2ccc(C(=N)N)cc2)=NO1 (centres unmarked) [Example 345] | < 10 | 
CCOC(=O)C[C@@H](CC(C)C)NC(=O)CC1CC(c2ccc(C(=N)N)cc2)=NO1 (stereo partly drawn) [Example 348, Ethyl 3(R)-{5(R,S)-N-[3-(4-amidinophenyl)isoxazolin-5-ylacetyl]amino}-5-methylhexanoate . trifluoroacetic acid salt] | < 10 | 
O=C(O)CCCN1C(=O)CC2(CC(CCCC3CCNCC3)=NO2)C1=O (centres unmarked) [Example 373] |  | IC50 [2]: 10 to 50 µM
N=C(N)c1ccc(C2=NOC(CC(=O)N3CCCCC3CC(=O)O)C2)cc1 [Example 375, 2-(R,S)-2-Carboxymethyl-1-{5-(R,S)-N-[3-(4-amidinophenyl)isoxazolin-5-ylacetyl]}piperidine] |  | IC50 [2]: < 10 µM
COC(=O)CC1CCCCN1C(=O)CC1CC(c2ccc(C(=N)N)cc2)=NO1 (centres unmarked) [Example 394] | < 10 | 
CCOC(=O)CC1CCCCN1C(=O)CC1CC(c2ccc(C(=N)N)cc2)=NO1 (centres unmarked) [Example 413] | < 10 | 
CCOC(=O)CC1CCCCCN1C(=O)CC1CC(c2ccc(C(=N)N)cc2)=NO1 (centres unmarked) [Example 415] | < 10 | 
N=C(N)c1ccc(C2=NOC(CC(=O)N[C@@H](CC(=O)O)C(=O)NCCc3ccccc3)C2)cc1 (stereo partly drawn) [Example 435, (S)-N^α -[3-(4-Amidinophenyl)-isoxazolin-5-(R,S)-ylacetyl]-α-aspart-N-(2-phenylethyl)amide, trifluoroacetic acid salt] | < 10 | 
CCOC(=O)CC(NC(=O)CC1CC(c2ccc(C(=N)N)cc2)=NO1)C(=O)OCC (centres unmarked) [Example 439] | < 10 | 
COC(=O)C(CNC(=O)CC1CC(c2ccc(C(N)=NC(=O)OC(C)(C)C)cc2)=NO1)NC(=O)OCc1ccccc1 (centres unmarked) [Example 440] | < 10 | 
COC(=O)CC(CCCc1ccccc1)NC(=O)CC1CC(c2ccc(C(=N)N)cc2)=NO1 (centres unmarked) [Example 446] | < 10 | 
COC(=O)CC(CCc1ccncc1)NC(=O)CC1CC(c2ccc(C(=N)N)cc2)=NO1 (centres unmarked) [Example 450] | < 10 | 
CCCCOC(=O)NC(CNC(=O)CC1CC(CCC2CCNCC2)=NO1)C(=O)OC (centres unmarked) [Example 451] | < 10 | 
COC(=O)CC(NC(=O)CC1CC(c2ccc(C(=N)N)cc2)=NO1)C(=O)NCCc1ccccc1 (centres unmarked) [Example 452] | < 10 | 
COC(=O)CC(NC(=O)CC1CC(c2ccc(C(N)=NC(=O)OC(C)(C)C)cc2)=NO1)C(=O)N1CCN(Cc2ccccc2)CC1 (centres unmarked) [Example 453] | < 10 | 
COC(=O)CC(NC(=O)CC1CC(c2ccc(C(=N)N)cc2)=NO1)C(=O)N(C)CCc1ccccc1 (centres unmarked) [Example 454] | < 10 | 
COC(=O)CC(NC(=O)CC1CC(c2ccc(C(=N)N)cc2)=NO1)C(=O)N1CCN(Cc2ccccc2)CC1 (centres unmarked) [Example 455] | < 10 | 
COC(=O)CC(C#C[Si](C)(C)C)NC(=O)CC1CC(c2ccc(C(=N)N)cc2)=NO1 (centres unmarked) [Example 457] | < 10 | 
CCOC(=O)CC(NC(=O)CC1CC(c2ccc(C(=N)N)cc2)=NO1)C(=O)NCC12CC3CC(CC(C3)C1)C2 (centres unmarked) [Example 462] | < 10 | 
N=C(N)c1ccc(C2=NOC(CC(=O)NC(CC(=O)O)C(=O)NCC34CC5CC(CC(C5)C3)C4)C2)cc1 (centres unmarked) [Example 463] |  | IC50 [2]: < 10 µM
COC(=O)CC(NC(=O)CC1CC(c2ccc(C(=N)N)cc2)=NO1)C(=O)N1CCCc2ccccc21 (centres unmarked) [Example 464] | < 10 | 
COC(=O)CC(NC(=O)CC1CC(c2ccc(C(=N)N)cc2)=NO1)C(=O)N1CCc2ccccc2C1 (centres unmarked) [Example 465] | < 10 | 
COC(=O)CC(NC(=O)CC1CC(c2ccc(C(=N)N)cc2)=NO1)C(=O)NC12CC3CC(CC(C3)C1)C2 (centres unmarked) [Example 466] | < 10 | 

Compound | IC50 [1] [µM] | further results
COC(=O)CC(NC(=O)CC1CC(c2ccc(C(=N)N)cc2)=NO1)C(=O)NC1C2CC3CC(C2)CC1C3 (centres unmarked) [Example 467] | < 10 | 
COC(=O)CC(NC(=O)CC1CC(c2ccc(C(=N)N)cc2)=NO1)C(=O)N1CCSCC1 (centres unmarked) [Example 468] | < 10 | 
COC(=O)CC(NC(=O)CC1CC(c2ccc(C(=N)N)cc2)=NO1)C(=O)N1CCSC1 (centres unmarked) [Example 469] | < 10 | 
CCCCOc1ccc(S(=O)(=O)NC(CNC(=O)CC2CC(c3ccc(C(=N)N)cc3)=NO2)C(=O)OC)cc1 (centres unmarked) [Example 471] | < 10 | 
COC(=O)C(CNC(=O)CC1CC(c2ccc(C(=N)N)cc2)=NO1)NS(=O)(=O)c1cccs1 (centres unmarked) [Example 472] | < 10 | 
COC(=O)[C@H](CNC(=O)CC1CC(c2ccc(C(=N)N)cc2)=NO1)NS(=O)(=O)c1cccc(C)c1 (stereo partly drawn) [Example 473A, Methyl N^2-3-methylphenylsulfonyl-N^3-[3-(4-amidinophenyl)isoxazolin-5R-ylacetyl]-S-2,3-diaminopropionate trifluoroacetic acid salt] | < 10 | 
COC(=O)[C@H](CNC(=O)CC1CC(c2ccc(C(=N)N)cc2)=NO1)NS(=O)(=O)c1cccc(C)c1 (stereo partly drawn) [Example 473B, Methyl N^2-3-methylphenylsulfonyl-N^3-[3-(4-amidinophenyl)-5S-ylacetyl]-S-2,3-diaminopropionate trifluoroacetic acid salt] |  | IC50 (preincubated with 100 IU/mL porcine liver esterase 2 hours at 37° C., 100 μM ADP, read-out: Platelet Aggregation Assay IC50 (with esterase)): < 10 µM
COC(=O)C(CNC(=O)CC1CC(c2ccc(C(=N)N)cc2)=NO1)NS(=O)(=O)c1cccc(C)c1 (centres unmarked) [Example 473] | < 10 | 
COC(=O)C(CNC(=O)CC1CC(c2ccc(C(=N)N)cc2)=NO1)NS(=O)(=O)c1ccc(I)cc1 (centres unmarked) [Example 474] | < 10 | 
COC(=O)C(CNC(=O)CC1CC(c2ccc(C(=N)N)cc2)=NO1)NS(=O)(=O)c1cccc(C(F)(F)F)c1 (centres unmarked) [Example 475] | < 10 | 
COC(=O)C(CNC(=O)CC1CC(c2ccc(C(=N)N)cc2)=NO1)NS(=O)(=O)c1cccc(Cl)c1 (centres unmarked) [Example 476] | < 10 | 
COC(=O)c1ccccc1S(=O)(=O)NC(CNC(=O)CC1CC(c2ccc(C(=N)N)cc2)=NO1)C(=O)OC (centres unmarked) [Example 477] | < 10 | 
COC(=O)C(CNC(=O)CC1CC(c2ccc(C(=N)N)cc2)=NO1)NS(=O)(=O)c1c(C)cc(C)cc1C (centres unmarked) [Example 478] | < 10 | 
COC(=O)C(CNC(=O)CC1CC(c2ccc(C(=N)N)cc2)=NO1)NS(=O)(=O)c1ccccc1Cl (centres unmarked) [Example 479] | < 10 | 
COC(=O)C(CNC(=O)CC1CC(c2ccc(C(=N)N)cc2)=NO1)NS(=O)(=O)c1ccccc1C(F)(F)F (centres unmarked) [Example 480] | < 10 | 
COC(=O)C(CNC(=O)CC1CC(c2ccc(C(=N)N)cc2)=NO1)NS(=O)(=O)c1ccc(C(F)(F)F)cc1 (centres unmarked) [Example 481] | < 10 | 
COC(=O)C(CNC(=O)CC1CC(c2ccc(C(=N)N)cc2)=NO1)NS(=O)(=O)c1ccccc1F (centres unmarked) [Example 482] | < 10 | 
COC(=O)C(CNC(=O)CC1CC(c2ccc(C(=N)N)cc2)=NO1)NS(=O)(=O)c1ccc(F)cc1 (centres unmarked) [Example 483] | < 10 | 
COC(=O)C(CNC(=O)CC1CC(c2ccc(C(=N)N)cc2)=NO1)NS(=O)(=O)c1ccc(OC)cc1 (centres unmarked) [Example 484] | < 10 | 
COC(=O)C(CNC(=O)CC1CC(c2ccc(C(=N)N)cc2)=NO1)NS(=O)(=O)c1c(C)c(C)cc(C)c1C (centres unmarked) [Example 485] | < 10 | 
COC(=O)C(CNC(=O)CC1CC(c2ccc(C(=N)N)cc2)=NO1)NS(=O)(=O)c1ccc(C#N)cc1 (centres unmarked) [Example 486] | < 10 | 
COC(=O)C(CNC(=O)CC1CC(c2ccc(C(=N)N)cc2)=NO1)NS(=O)(=O)c1ccc(Cl)cc1 (centres unmarked) [Example 487] | < 10 | 
CCc1ccc(S(=O)(=O)NC(CNC(=O)CC2CC(c3ccc(C(=N)N)cc3)=NO2)C(=O)OC)cc1 (centres unmarked) [Example 488] | < 10 | 
CCCc1ccc(S(=O)(=O)NC(CNC(=O)CC2CC(c3ccc(C(=N)N)cc3)=NO2)C(=O)OC)cc1 (centres unmarked) [Example 489] | < 10 | 
CCCS(=O)(=O)NC(CNC(=O)CC1CC(c2ccc(C(=N)N)cc2)=NO1)C(=O)OC (centres unmarked) [Example 490] | < 10 | 
COC(=O)C(CNC(=O)CC1CC(c2ccc(C(=N)N)cc2)=NO1)NS(=O)(=O)CCc1ccccc1 (centres unmarked) [Example 491] | < 10 | 
